{"source": "patent US7276330B2", "about": "“Devices, systems and methods for time domain multiplexing of reagents” (Caliper Technologies Corp., priority 1999, dated 2007)", "target": "T1, Gq coupled P2u purinergic receptor (THP-1) (Homo sapiens, UniProt P41231)", "T1 construct": "human monocytic leukemia cell line that carried the Gq coupled P2u purinergic receptor (THP-1); endogenous in cells; host or cells: THP-1 (human monocytic leukemia cell line)", "T1 sequence (P41231 whole entry)": "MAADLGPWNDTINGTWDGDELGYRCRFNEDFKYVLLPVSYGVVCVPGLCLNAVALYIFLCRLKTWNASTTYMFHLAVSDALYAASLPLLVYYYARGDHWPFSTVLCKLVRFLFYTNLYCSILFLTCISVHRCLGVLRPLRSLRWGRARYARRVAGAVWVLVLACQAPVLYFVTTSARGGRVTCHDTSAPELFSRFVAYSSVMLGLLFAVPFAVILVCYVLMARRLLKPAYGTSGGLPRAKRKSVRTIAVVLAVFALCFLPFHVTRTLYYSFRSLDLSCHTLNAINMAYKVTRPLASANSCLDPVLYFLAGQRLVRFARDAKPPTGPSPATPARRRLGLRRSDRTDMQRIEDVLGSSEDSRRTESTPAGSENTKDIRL", "experiment": "model calcium flux assay in THP-1 cells in a microfluidic device", "assay_type": "cell-based", "settings": "THP-1 cells preloaded with Fluo-3 or Fluo-4; UTP 100, 300, 1000 and 3000 nM; detection 15 seconds after exposure", "source_text": "The device shown in FIG. 1A was used to test the dose response of a human monocytic leukemia cell line that carried the Gq coupled P2u purinergic receptor (THP-1), as a model calcium flux assay. Briefly, a phospholipase C/IP3/calcium signal transduction pathway is activated when the receptor binds to its ligand UTP. When the cells are preloaded with a calcium sensitive indicator, i.e., Fluo-3 or Fluo-4 (available from Molecular Probes, Eugene, Oreg.). The transient increase in intracellular calcium is then detected as a fluorescent signal.\nIn the present example, THP-1 cells were preloaded with Fluo-3 or Fluo-4, as well as a nucleic acid stain (Syto-62 from Molecular Probes). The cells were washed and resuspended in Cell Buffer (1.56 ml HBSS, 0.94 ml 33% Ficoll, 5 μl HEPES (1 M stock), 25 μl 100× PBC, 25 μl 10% BSA, and 0.546 ml OPTI-Prep (65% stock)) and added to reservoir 106. Different concentrations of UTP in Cell Buffer (100, 300, 1000 and 3000 nM, respectively) were then added to reagent reservoirs 110-116. […]\nIn order to monitor the stepwise increase of each UTP reagent solution, an additional marker solution, BODIPY-arginine, was added to the reagent reservoirs 110-116. […] Briefly, the slope of calcium signal (response) vs. Syto 62 signal (cell number) was calculated for each UTP concentration. […]"}
{"smiles": "O=c1ccn([C@@H]2O[C@H](COP(=O)(O)OP(=O)(O)OP(=O)(O)O)[C@@H](O)[C@H]2O)c(=O)[nH]1", "note": "[UTP]", "values": [{"measurement": "calcium signal (fluorescent peaks from each cell) with stepwise addition of UTP", "result": "increase discernibly in size"}]}
